According to patent US10760110B2, “Antibiotic testing and screening system” (priority 2017, dated 2020):
Where two headings read alike, the source gives them in different places.

What was measured:
[1] = system: K. pneumoniae NVT1001 strains with QnrB, QnrS or AAC(6′)-Ib-cr plasmids; test: Etest MIC of quinolones, GyrA/ParC mutations, ΔramR and/or QnrB, QnrS or AAC(6′)-Ib-cr (Table 12); assay type: cell-based; conditions: Klebsiella pneumoniae
Method: DNA fragments of the resistance genes along with their flanking regions were amplified from clinical plasmids via PCR with specific primer pairs. The resulting PCR fragments were digested and then cloned into the plasmid pACYC177 or pACYC184. The resulting plasmids were then transformed into K. pneumoniae strain NVT1001 via electroporation. The recombinant bacteria were plated onto LB agar plates containing kanamycin (50 mg/L) or chloramphenicol (50 mg/L), and the presence of the cloned gene was confirmed via PCR and DNA sequencing.
(§1) The MICs of antibiotics were determined using the Etest (Biodisk AB, Sweden) according to the manufacturer's instructions. The MICs from the Etest, which fall between standard two-fold dilutions, were rounded up to the next highest two-fold value. The MICs of ceftazidime and cefotaxime against K. pneumoniae NVT1001 harbouring the pACYC177 plasmid with blaOXA-48 were further determined using a broth microdilution test according to the recommendations of the CLSI,^25 and the results were interpreted according to the breakpoints established by the CLSI in 2017.^25 Meanwhile, due to the lack of CLSI breakpoints in 2016 and 2017, the results for cephalothin were interpreted according to the breakpoints established by the CLSI in 2015,^26 and the results for moxifloxacin were interpreted according to the breakpoints established by the EUCAST in 2017.^27

[2] = system: A. baumannii KW1 and its GyrA/ParC mutants; test: Etest MIC of quinolones, GyrA and/or ParC mutations (Table 17); assay type: cell-based; conditions: Acinetobacter baumannii
Excerpt: DNA fragments of the entire adeR, adeS, gyrA and parC along with their flanking regions were amplified from A. baumannii KW1 using PCR with specific primer pairs and then cloned into plasmid pUT-KB. The QuikChange site-directed mutagenesis kit (Stratagene) was used to generate mutations in the adeR, adeS, gyrA and parC genes in the plasmids using the methods described by the manufacturer. For homologous recombination, plasmids containing mutations in the adeR, adeS, gyrA or parC gene were transformed into E. coli S17-1 λpir^23 via electroporation and mobilized into A. baumannii KW1 via conjugation. Single-crossover strains were selected from Luria-Bertani (LB) plates supplemented with cefotaxime (1 μg/ml) and kanamycin ([…]), as the growth of non-A. baumannii contaminants is suppressed by cefotaxime (1 μg/ml). The kanamycin-resistant transconjugants were selected and the insertion of plasmids was verified via PCR. After incubation in 20 ml brain heart infusion (BHI) broth for 6 hours in the absence of kanamycin at 37° C., the fully grown cultures were spread onto LB plates supplemented with 10% sucrose. After the double crossover occurred, the sucrose-resistant and kanamycin-susceptible colonies were selected, and the gene mutations were confirmed via PCR.
as §1

[3] = AAC(6′)-Ib-cr on pACYC177, S83I mutant
[4] = AAC(6′)-Ib-cr on pACYC177, S83I/D87N/S80I mutant
[5] = AAC(6′)-Ib-cr on pACYC177, S83I/S80I mutant
[6] = AAC(6′)-Ib-cr on pACYC177, WT (NVT1001), read-out: MIC
[7] = AAC(6′)-Ib-cr on pACYC177, ΔramR mutant
[8] = AAC(6′)-Ib-cr on pACYC177, ΔramR/S83I mutant
[9] = AAC(6′)-Ib-cr on pACYC177, ΔramR/S83I/D87N/S80I mutant
[10] = AAC(6′)-Ib-cr on pACYC177, ΔramR/S83I/S80I mutant
[11] = QnrB on pACYC177, S83I/D87N/S80I mutant
[12] = QnrB on pACYC177, S83I/S80I mutant
[13] = QnrB on pACYC177, WT (NVT1001), read-out: MIC
[14] = QnrB on pACYC177, ΔramR/S83I mutant
[15] = QnrB on pACYC177, ΔramR/S83I/D87N/S80I mutant
[16] = QnrB on pACYC177, ΔramR/S83I/S80I mutant
[17] = QnrS on pACYC177, S83I/D87N/S80I mutant
[18] = QnrS on pACYC177, S83I/S80I mutant
[19] = QnrS on pACYC177, WT (NVT1001), read-out: MIC
[20] = QnrS on pACYC177, ΔramR/S83I mutant
[21] = QnrS on pACYC177, ΔramR/S83I/D87N/S80I mutant
[22] = QnrS on pACYC177, ΔramR/S83I/S80I mutant
[23] = no supplemental plasmid, S83I mutant
[24] = no supplemental plasmid, S83I/D87N/S80I mutant
[25] = no supplemental plasmid, S83I/S80I mutant
[26] = no supplemental plasmid, WT (NVT1001), read-out: MIC
[27] = no supplemental plasmid, ΔramR mutant
[28] = no supplemental plasmid, ΔramR/S83I mutant
[29] = no supplemental plasmid, ΔramR/S83I/D87N/S80I mutant
[30] = no supplemental plasmid, ΔramR/S83I/S80I mutant

Question: What does the source list for C[C@H]1COc2c(N3CCN(C)CC3)c(F)cc3c(=O)c(C(=O)O)cn1c23 [Levofloxacin, levofloxacin]?
Answer: MIC [1, 3]: 0.5 µg/mL; MIC [1, 4]: 8 µg/mL; MIC [1, 5]: 2 µg/mL; MIC [1, 6]: 0.06 µg/mL; MIC [1, 7]: 1 µg/mL; MIC [1, 8]: 8 µg/mL; MIC [1, 9]: > 32 µg/mL; MIC [1, 10]: > 32 µg/mL; MIC ([1]; QnrB on pACYC177, S83I mutant): 2 µg/mL; MIC [1, 11]: > 32 µg/mL; MIC [1, 12]: 16 µg/mL; MIC [1, 13]: 1 µg/mL; MIC ([1]; QnrB on pACYC177, ΔramR mutant): 8 µg/mL; MIC [1, 14]: > 32 µg/mL; MIC [1, 15]: > 32 µg/mL; MIC [1, 16]: > 32 µg/mL; MIC ([1]; QnrS on pACYC177, S83I mutant): 4 µg/mL; MIC [1, 17]: > 32 µg/mL; MIC [1, 18]: 32 µg/mL; MIC [1, 19]: 1 µg/mL; MIC ([1]; QnrS on pACYC177, ΔramR mutant): 8 µg/mL; MIC [1, 20]: > 32 µg/mL; MIC [1, 21]: > 32 µg/mL; MIC [1, 22]: > 32 µg/mL; MIC [1, 23]: 0.5 µg/mL; MIC [1, 24]: 8 µg/mL; MIC [1, 25]: 2 µg/mL; MIC [1, 26]: 0.06 µg/mL; MIC [1, 27]: 1 µg/mL; MIC [1, 28]: 16 µg/mL; MIC [1, 29]: > 32 µg/mL; MIC [1, 30]: > 32 µg/mL; MIC ([2]; E84K mutant): 0.19 µg/mL; MIC ([2]; G78C mutant): 0.19 µg/mL; MIC ([2]; KW1, read-out: MIC): 0.19 µg/mL; MIC ([2]; S80L mutant): 0.19 µg/mL; MIC ([2]; S80W mutant): 0.19 µg/mL; MIC ([2]; S80Y mutant): 0.19 µg/mL; MIC ([2]; S83L mutant): 1 µg/mL; MIC ([2]; S83L/E84K mutant): > 32 µg/mL; MIC ([2]; S83L/G78C mutant): 32 µg/mL; MIC ([2]; S83L/S80L mutant): > 32 µg/mL; MIC ([2]; S83L/S80W mutant): > 32 µg/mL; MIC ([2]; S83L/S80Y mutant): > 32 µg/mL

Question: What does the source list for COc1c(N2C[C@@H]3CCCN[C@@H]3C2)c(F)cc2c(=O)c(C(=O)O)cn(C3CC3)c12 [Moxifloxacin, moxifloxacin]?
Answer: MIC [1, 3]: 1 µg/mL; MIC [1, 4]: > 32 µg/mL; MIC [1, 5]: 8 µg/mL; MIC [1, 6]: 0.125 µg/mL; MIC [1, 7]: 1 µg/mL; MIC [1, 8]: 16 µg/mL; MIC [1, 9]: > 32 µg/mL; MIC [1, 10]: > 32 µg/mL; MIC ([1]; QnrB on pACYC177, S83I mutant): 8 µg/mL; MIC [1, 11]: > 32 µg/mL; MIC [1, 12]: > 32 µg/mL; MIC [1, 13]: 2 µg/mL; MIC ([1]; QnrB on pACYC177, ΔramR mutant): > 32 µg/mL; MIC [1, 14]: > 32 µg/mL; MIC [1, 15]: > 32 µg/mL; MIC [1, 16]: > 32 µg/mL; MIC ([1]; QnrS on pACYC177, S83I mutant): 8 µg/mL; MIC [1, 17]: > 32 µg/mL; MIC [1, 18]: > 32 µg/mL; MIC [1, 19]: 1 µg/mL; MIC ([1]; QnrS on pACYC177, ΔramR mutant): > 32 µg/mL; MIC [1, 20]: > 32 µg/mL; MIC [1, 21]: > 32 µg/mL; MIC [1, 22]: > 32 µg/mL; MIC [1, 23]: 1 µg/mL; MIC [1, 24]: > 32 µg/mL; MIC [1, 25]: 8 µg/mL; MIC [1, 26]: 0.125 µg/mL; MIC [1, 27]: 1 µg/mL; MIC [1, 28]: 8 µg/mL; MIC [1, 29]: > 32 µg/mL; MIC [1, 30]: > 32 µg/mL; MIC ([2]; E84K mutant): 0.19 µg/mL; MIC ([2]; G78C mutant): 0.19 µg/mL; MIC ([2]; KW1, read-out: MIC): 0.19 µg/mL; MIC ([2]; S80L mutant): 0.25 µg/mL; MIC ([2]; S80W mutant): 0.19 µg/mL; MIC ([2]; S80Y mutant): 0.19 µg/mL; MIC ([2]; S83L mutant): 0.75 µg/mL; MIC ([2]; S83L/E84K mutant): 6 µg/mL; MIC ([2]; S83L/G78C mutant): 4 µg/mL; MIC ([2]; S83L/S80L mutant): 6 µg/mL; MIC ([2]; S83L/S80W mutant): 8 µg/mL; MIC ([2]; S83L/S80Y mutant): 6 µg/mL

Question: What does the source list for CCn1cc(C(=O)O)c(=O)c2ccc(C)nc21 [Nalidixic acid, nalidixic acid]?
Answer: MIC [1, 3]: > 256 µg/mL; MIC [1, 4]: > 256 µg/mL; MIC [1, 5]: > 256 µg/mL; MIC [1, 6]: 4 µg/mL; MIC [1, 7]: 64 µg/mL; MIC [1, 8]: > 256 µg/mL; MIC [1, 9]: > 256 µg/mL; MIC [1, 10]: > 256 µg/mL; MIC ([1]; QnrB on pACYC177, S83I mutant): > 256 µg/mL; MIC [1, 11]: > 256 µg/mL; MIC [1, 12]: > 256 µg/mL; MIC [1, 13]: 32 µg/mL; MIC ([1]; QnrB on pACYC177, ΔramR mutant): 256 µg/mL; MIC [1, 14]: > 256 µg/mL; MIC [1, 15]: > 256 µg/mL; MIC [1, 16]: > 256 µg/mL; MIC ([1]; QnrS on pACYC177, S83I mutant): > 256 µg/mL; MIC [1, 17]: > 256 µg/mL; MIC [1, 18]: > 256 µg/mL; MIC [1, 19]: 16 µg/mL; MIC ([1]; QnrS on pACYC177, ΔramR mutant): 64 µg/mL; MIC [1, 20]: > 256 µg/mL; MIC [1, 21]: > 256 µg/mL; MIC [1, 22]: > 256 µg/mL; MIC [1, 23]: > 256 µg/mL; MIC [1, 24]: > 256 µg/mL; MIC [1, 25]: > 256 µg/mL; MIC [1, 26]: 4 µg/mL; MIC [1, 27]: 32 µg/mL; MIC [1, 28]: > 256 µg/mL; MIC [1, 29]: > 256 µg/mL; MIC [1, 30]: > 256 µg/mL; MIC ([2]; E84K mutant): 12 µg/mL; MIC ([2]; G78C mutant): 12 µg/mL; MIC ([2]; KW1, read-out: MIC): 12 µg/mL; MIC ([2]; S80L mutant): 12 µg/mL; MIC ([2]; S80W mutant): 12 µg/mL; MIC ([2]; S80Y mutant): 12 µg/mL; MIC ([2]; S83L mutant): > 256 µg/mL; MIC ([2]; S83L/E84K mutant): > 256 µg/mL; MIC ([2]; S83L/G78C mutant): > 256 µg/mL; MIC ([2]; S83L/S80L mutant): > 256 µg/mL; MIC ([2]; S83L/S80W mutant): > 256 µg/mL; MIC ([2]; S83L/S80Y mutant): > 256 µg/mL
